Activity calls are given as the source filed them. The calls are words filed in the database; no cut-off is given here.
target: T1, Sortilin (Homo sapiens, UniProt Q99523); experiment: Displacement of [3H]-neurotensin from human His6-tagged sortilin pretreated for 30 mins followed by [3H]-neurotensin addition after 6 hrs measured for 360 secs by SPA; conditions: not given
T1 sequence (Q99523 whole entry): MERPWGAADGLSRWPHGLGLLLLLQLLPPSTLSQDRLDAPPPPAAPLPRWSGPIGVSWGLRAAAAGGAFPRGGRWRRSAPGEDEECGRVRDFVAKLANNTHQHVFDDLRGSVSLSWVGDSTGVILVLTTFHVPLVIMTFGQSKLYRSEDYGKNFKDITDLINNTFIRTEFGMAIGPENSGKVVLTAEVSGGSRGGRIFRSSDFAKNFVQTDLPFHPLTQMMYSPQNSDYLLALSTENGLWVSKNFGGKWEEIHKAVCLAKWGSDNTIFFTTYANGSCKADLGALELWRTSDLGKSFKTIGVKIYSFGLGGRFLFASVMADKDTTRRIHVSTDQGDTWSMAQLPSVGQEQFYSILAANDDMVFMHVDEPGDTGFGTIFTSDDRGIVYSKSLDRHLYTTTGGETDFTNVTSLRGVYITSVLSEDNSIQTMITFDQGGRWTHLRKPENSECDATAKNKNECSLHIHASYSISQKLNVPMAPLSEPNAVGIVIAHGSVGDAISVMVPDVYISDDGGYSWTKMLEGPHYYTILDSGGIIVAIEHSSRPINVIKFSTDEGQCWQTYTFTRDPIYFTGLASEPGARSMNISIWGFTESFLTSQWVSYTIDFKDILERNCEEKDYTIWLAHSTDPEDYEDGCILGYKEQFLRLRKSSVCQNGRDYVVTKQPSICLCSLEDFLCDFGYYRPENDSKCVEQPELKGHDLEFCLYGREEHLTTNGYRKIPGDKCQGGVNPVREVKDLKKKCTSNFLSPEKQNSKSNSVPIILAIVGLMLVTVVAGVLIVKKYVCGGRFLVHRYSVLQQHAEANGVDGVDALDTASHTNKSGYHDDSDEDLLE

SMILES | IC50 [µM]
O=c1[nH]nc(-c2ccccc2)o1 | 126
O=C1CC(c2ccccc2)=NO1 | 158
Cc1cccc(C(=O)NC2C(=O)N=NN2CCC(C)C)n1 (stereo not drawn) | 39.8
CC(C)CCN1N=NC(=O)C1C(=O)Nc1ccncc1 (stereo not drawn) | 63.1
O=C1CN(Cc2ccccc2)N=N1 | 126
O=C1CC(Cc2ccccc2)=NO1 | 79.4
Cc1cccc(NC(=O)C2C(=O)N=NN2CCC(C)C)n1 (stereo not drawn) | 12.6
CC(C)CCN1N=NC(=O)C1NC(=O)c1ccncc1 (stereo not drawn) | 20
CC(C)CCN1N=NC(=O)C1NC(=O)c1cccnc1 (stereo not drawn) | 12.6
CC(C)CCN1N=NC(=O)C1C(=O)Nc1cccnc1 (stereo not drawn) | 3.98

More lines, now with the values ahead:

IC50 [µM] | SMILES
126 | CC(C)CCc1noc(=O)[nH]1
31.6 | CC(=O)NC1C(=O)N=NN1CCC(C)C (stereo not drawn)
12.6 | CC(C)CCC1=NOC(=O)C1
39.8 | CNC(=O)C1C(=O)N=NN1CCC(C)C (stereo not drawn)
63.1 | CC(C)CCc1n[nH]c(=O)o1
63.1 | CC(C)CCN1CC(=O)N=N1
50.1 | CC(C)CCN1N=NC(=O)C1C(N)=O (stereo not drawn)
79.4 | CC(C)CCN1N=NC(=O)C1C (stereo not drawn)
31.6 | CC(C)CC1=NOC(=O)C1

target: Sortilin (Homo sapiens) (UniProt Q99523); experiment: Displacement of [3H]-neurotensin from human His6-tagged sortilin at 500 uM pretreated for 30 mins followed by [3H]-neurotensin addition after 6 hrs measured for 360 secs by SPA relative to control; conditions: not given

SMILES | Imax
O=c1[nH]c(-c2cccc(Cl)c2)no1 | 42%
O=C1CN(c2ccc(Cl)cc2)N=N1 | inactive
O=c1[nH]nc(Cc2ccccc2)o1 | 54%
O=c1[nH]nc(-c2cccc(Cl)c2)o1 | inactive
O=C1CN(c2ccccc2)N=N1 | 50%
O=C1CC(c2cccc(Cl)c2)=NO1 | 30%
O=c1cc(-c2ccccc2)o[nH]1 | inactive
O=C1CC(c2ccc(Cl)cc2)=NO1 | inactive
O=C1CN(c2cccc(Cl)c2)N=N1 | inactive
CC(C)CN1CC(=O)N=N1 | 69%
O=C1CN(c2ccccc2Cl)N=N1 | inactive
Oc1nc(-c2ccccc2)no1 | 35%
O=c1[nH]c(-c2ccc(Cl)cc2)no1 | inactive
O=C1CC(c2ccccc2Cl)=NO1 | 37%
O=c1[nH]nc(-c2ccccc2Cl)o1 | 63%
O=c1[nH]nc(-c2ccc(Cl)cc2)o1 | inactive

Further lines, results first:

Imax | SMILES
60% | CC(C)Cc1n[nH]c(=O)o1
57% | CCC1C(=O)N=NN1CCC(C)C (stereo not drawn)
< 20% | CC(C)CCN1N=NC(=O)C1C(C)C (stereo not drawn)
55% | O=c1[nH]c(Cc2ccccc2)no1
inactive | O=c1[nH]c(-c2ccccc2Cl)no1

tested on: MDR1; experiment: Permeability in MDCK cells expressing human MDR1 at 0.5 uM after 150 mins by LC-MS/MS analysis; format: ADME, cell-based, Canis lupus familiaris; conditions: dog, read-out: permeability

SMILES | Papp at 2.5 h, 0.5 µM [×10⁻⁶ cm/s]
Cc1cccc(NC(=O)c2ccc(C(F)(F)F)cc2C(=O)O)n1 | 0.3
CC(C)CCN1N=NC(=O)C1NC(=O)c1cccnc1 (stereo not drawn) | < 0.1
CC(C)CCN1N=NC(=O)C1C(=O)Nc1cccnc1 (stereo not drawn) | 2.9

More lines, now with the values ahead:

Papp at 2.5 h, 0.5 µM [×10⁻⁶ cm/s] | SMILES
< 0.1 | CC(=O)NC1C(=O)N=NN1CCC(C)C (stereo not drawn)
< 0.1 | CNC(=O)C1C(=O)N=NN1CCC(C)C (stereo not drawn)
2.9 | CC(C)CCN1CC(=O)N=N1

tested on: not listed separately; experiment: Dissociation constant, pKa of the compound in 29 to 54% methanol; format: physicochemical; conditions: not given

pKa | SMILES
6.4 | Cn1nnc(O)c1CC(N)C(=O)O (stereo not drawn)
7 | CC(C)CCN1CC(=O)N=N1
